Source: ChEMBL document CHEMBL1156319, “Synthesis, crystal and antibacterial studies of diversely functionalized tetrahydropyridin-4-ol” (2010)
≈ marks a conversion by molar mass, not a printed value.

How the values were obtained:
Assay type in all cases: functional
Staphylococcus aureus [1] = test: Antibacterial activity against Staphylococcus aureus LCB0001 by two fold serial dilution method
Staphylococcus aureus [2] = test: Antibacterial activity against methicillin-resistant Staphylococcus aureus LCB0002 by two fold serial dilution method
[3] = test system: Staphylococcus epidermidis; test: Antibacterial activity against Staphylococcus epidermidis LCB0003 by two fold serial dilution method
[4] = test system: Staphylococcus epidermidis; test: Antibacterial activity against methicillin-resistant Staphylococcus epidermidis LCB0004 by two fold serial dilution method
Enterococcus faecalis [5] = test: Antibacterial activity against Enterococcus faecalis LCB0005 by two fold serial dilution method
Enterococcus faecalis [6] = test: Antibacterial activity against vancomycin-resistant Enterococcus faecalis LCB0006 by two fold serial dilution method
Enterococcus faecalis [7] = test: Antibacterial activity against vancomycin and Linezolid resistant Enterococcus faecalis LCB0007 by two fold serial dilution method
Enterococcus faecium [8] = test: Antibacterial activity against vancomycin-resistant Enterococcus faecium LCB0008 by two fold serial dilution method
Enterococcus faecium [9] = test: Antibacterial activity against Enterococcus faecium LCB0009 by two fold serial dilution method
Escherichia coli [10] = test: Antibacterial activity against Escherichia coli LCB0010 by two fold serial dilution method
Escherichia coli [11] = test: Antibacterial activity against Escherichia coli LCB0011 by two fold serial dilution method
Escherichia coli [12] = test: Antibacterial activity against Escherichia coli LCB0012 by two fold serial dilution method
Pseudomonas aeruginosa = test: Antibacterial activity against Pseudomonas aeruginosa LCB0013 by two fold serial dilution method
Klebsiella pneumoniae = test: Antibacterial activity against Klebsiella pneumoniae LCB0014 by two fold serial dilution method
Haemophilus influenzae = test: Antibacterial activity against Haemophilus influenzae LCB0015 by two fold serial dilution method
Moraxella catarrhalis = test: Antibacterial activity against Moraxella catarrhalis LCB0016 by two fold serial dilution method

SMILES | MIC90 (Staphylococcus aureus [1]) [µg/mL] | MIC90 (Staphylococcus aureus [2]) [µg/mL] | MIC90 [3] [µg/mL] | MIC90 [4] [µg/mL] | MIC90 (Enterococcus faecalis [5]) [µg/mL] | MIC90 (Enterococcus faecalis [6]) [µg/mL] | MIC90 (Enterococcus faecalis [7]) [µg/mL] | MIC90 (Enterococcus faecium [8]) [µg/mL] | MIC90 (Enterococcus faecium [9]) [µg/mL] | MIC90 (Escherichia coli [10]) [µg/mL] | MIC90 (Escherichia coli [11]) [µg/mL] | MIC90 (Escherichia coli [12]) [µg/mL] | MIC90 (Pseudomonas aeruginosa) [µg/mL] | MIC90 (Klebsiella pneumoniae) [µg/mL] | MIC90 (Haemophilus influenzae) [µg/mL] | MIC90 (Moraxella catarrhalis) [µg/mL]
N[C@@H]1[C@H]2CN(c3nc4c(cc3F)c(=O)c(C(=O)O)cn4-c3ccc(F)cc3F)C[C@@H]12 [TROVAFLOXACIN] | < 0.0625 | 2 (≈ 4.8 µM) | < 0.0625 | < 0.0625 | < 0.0625 | 16 (≈ 38.4 µM) | 16 (≈ 38.4 µM) | 128 (≈ 307 µM) | 32 (≈ 76.9 µM) | < 0.0625 | < 0.0625 | < 0.0625 | 0.5 (≈ 1.2 µM) | 0.125 (≈ 0.3 µM) | < 0.0625 | < 0.0625
CC(=O)NC[C@H]1CN(c2ccc(N3CCOCC3)c(F)c2)C(=O)O1 [LINEZOLID] | 2 (≈ 5.93 µM) | 2 (≈ 5.93 µM) | 4 (≈ 11.9 µM) | 8 (≈ 23.7 µM) | 4 (≈ 11.9 µM) | 4 (≈ 11.9 µM) | 64 (≈ 190 µM) | 2 (≈ 5.93 µM) | 4 (≈ 11.9 µM) | > 128 | 16 (≈ 47.4 µM) | 128 (≈ 379 µM) | > 128 | > 128 | 16 (≈ 47.4 µM) | 4 (≈ 11.9 µM)
